Measured values reported in publication PMC8468039, “Development of New Meridianin/Leucettine-Derived Hybrid Small Molecules as Nanomolar Multi-Kinase Inhibitors with Antitumor Activity” (Biomedicines, 2021).
Values joined by “and” are separate entries in the source; they are usually repeats but may differ in a detail not shown here. Equal values may be shown once. Read-outs that look alike come from different tables or passages of the source.

Assays:
FMS = target: T1, FMS (Homo sapiens, UniProt P07333); test: In vitro kinase inhibition assay (HotSpot, Reaction Biology); format: biochemical; settings: for inhibition at 10 µM: read-out: Percent Inhibition, FMS; for IC50: 10-dose, 3-fold serial dilution starting at 100 μM; for fold more potent than imatinib over FMS: from IC50 values
T1 construct: purchased Reaction Biology Corp
T1 sequence (P07333 20-972): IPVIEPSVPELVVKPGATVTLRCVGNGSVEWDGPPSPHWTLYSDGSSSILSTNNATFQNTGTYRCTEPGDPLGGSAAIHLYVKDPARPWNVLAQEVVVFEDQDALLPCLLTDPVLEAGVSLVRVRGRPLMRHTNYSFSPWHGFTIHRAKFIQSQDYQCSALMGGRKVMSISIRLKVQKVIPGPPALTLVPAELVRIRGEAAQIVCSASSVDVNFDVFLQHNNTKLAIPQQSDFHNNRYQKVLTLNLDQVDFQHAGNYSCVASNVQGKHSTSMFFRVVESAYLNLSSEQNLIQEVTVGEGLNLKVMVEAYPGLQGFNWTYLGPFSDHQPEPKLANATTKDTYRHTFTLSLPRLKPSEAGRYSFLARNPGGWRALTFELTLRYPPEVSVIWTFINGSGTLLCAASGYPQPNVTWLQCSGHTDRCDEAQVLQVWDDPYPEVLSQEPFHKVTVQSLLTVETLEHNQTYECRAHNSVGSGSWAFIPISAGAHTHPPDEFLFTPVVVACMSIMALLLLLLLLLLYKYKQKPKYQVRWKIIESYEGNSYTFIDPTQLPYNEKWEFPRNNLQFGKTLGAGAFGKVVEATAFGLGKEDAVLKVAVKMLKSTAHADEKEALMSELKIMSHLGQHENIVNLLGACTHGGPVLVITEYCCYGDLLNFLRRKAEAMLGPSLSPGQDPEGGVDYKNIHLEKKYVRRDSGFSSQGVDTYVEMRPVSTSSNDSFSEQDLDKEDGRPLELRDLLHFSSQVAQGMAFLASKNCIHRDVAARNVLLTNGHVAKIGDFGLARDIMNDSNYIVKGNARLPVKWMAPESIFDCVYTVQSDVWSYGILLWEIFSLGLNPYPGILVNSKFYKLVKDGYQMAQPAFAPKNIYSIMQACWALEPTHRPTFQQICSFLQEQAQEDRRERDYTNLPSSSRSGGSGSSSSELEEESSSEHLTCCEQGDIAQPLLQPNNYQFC
Method: (§1) The in vitro kinase inhibition assay was carried out by Reaction Biology Corp. (Reaction Biology Corp., Chester, PA, USA) Kinase HotSpot^SM service (http://www.reactionbiology.com, accessed on 15 January 2021), following the previously reported methods. (For details, see Supplementary Material).
(§2) As mentioned in the introduction, to get insights about the kinase inhibition profile of the hybrid small molecule 5a, an in vitro screening over a panel of 14 cancer-related kinases was carried out. Accordingly, 10 µM concentrations of compound 5a were used in a kinase inhibition assay over various kinase groups and families in the presence of 10 µM ATP using HotSpotSM technology. To get a comprehensive picture of the inhibitory activities of the tested compound (5a) against the kinase panel, data are illustrated in Table 1. […] Compound 5a was also able to suppress the kinase activity of the epidermal growth factor receptor (EGFR), platelet-derived growth factor receptor-alpha (PDGFRα), and cyclin-dependent kinase 2 (CDK2) with modest inhibition values of 26.99 ± 0.9, 24.0 ± 0.4, and 20.1 ± 0.1%, respectively. […] Several studies have confirmed direct relationships between the most affected kinases (FMS, LCK, LYN, and DAPK1) and different human disorders including cancer.
(§3) 5. Protocol of Kinase assay
(§4) Kinases inhibitory activities were assessed by the HotSpot assay platform, which contained specific kinase/substrate pairs along with required cofactors. Base reaction buffer: 20 mM Hepes (pH 7.5), 10 mM MgCl2, 1 mM EGTA, 0.02% Brij35, 0.02 mg/ml BSA, 0.1 mM Na3VO4, 2 mM DTT, 1% DMSO. Testing compounds were dissolved in 100% DMSO to specific concentration. The serial dilution was conducted by Integra Viaflo Assist in DMSO. The reaction mixture containing the examined compound and 33P-ATP was incubated at room temperature for 2h and radioactivity was detected by filter-binding method. Kinase activity data were expressed as the percent remaining kinase activity in test samples compared to vehicle (dimethyl sulfoxide) reactions. IC50 values and curve fits were obtained using Prism (GraphPad Software).

DAPK1 = target: T2, DAPK1 (Homo sapiens, UniProt P53355); test: as above; format: biochemical; settings: single dose of 10 µM; read-out: Percent Inhibition, DAPK1
T2 construct: purchased Reaction Biology Corp
T2 sequence (P53355 whole entry): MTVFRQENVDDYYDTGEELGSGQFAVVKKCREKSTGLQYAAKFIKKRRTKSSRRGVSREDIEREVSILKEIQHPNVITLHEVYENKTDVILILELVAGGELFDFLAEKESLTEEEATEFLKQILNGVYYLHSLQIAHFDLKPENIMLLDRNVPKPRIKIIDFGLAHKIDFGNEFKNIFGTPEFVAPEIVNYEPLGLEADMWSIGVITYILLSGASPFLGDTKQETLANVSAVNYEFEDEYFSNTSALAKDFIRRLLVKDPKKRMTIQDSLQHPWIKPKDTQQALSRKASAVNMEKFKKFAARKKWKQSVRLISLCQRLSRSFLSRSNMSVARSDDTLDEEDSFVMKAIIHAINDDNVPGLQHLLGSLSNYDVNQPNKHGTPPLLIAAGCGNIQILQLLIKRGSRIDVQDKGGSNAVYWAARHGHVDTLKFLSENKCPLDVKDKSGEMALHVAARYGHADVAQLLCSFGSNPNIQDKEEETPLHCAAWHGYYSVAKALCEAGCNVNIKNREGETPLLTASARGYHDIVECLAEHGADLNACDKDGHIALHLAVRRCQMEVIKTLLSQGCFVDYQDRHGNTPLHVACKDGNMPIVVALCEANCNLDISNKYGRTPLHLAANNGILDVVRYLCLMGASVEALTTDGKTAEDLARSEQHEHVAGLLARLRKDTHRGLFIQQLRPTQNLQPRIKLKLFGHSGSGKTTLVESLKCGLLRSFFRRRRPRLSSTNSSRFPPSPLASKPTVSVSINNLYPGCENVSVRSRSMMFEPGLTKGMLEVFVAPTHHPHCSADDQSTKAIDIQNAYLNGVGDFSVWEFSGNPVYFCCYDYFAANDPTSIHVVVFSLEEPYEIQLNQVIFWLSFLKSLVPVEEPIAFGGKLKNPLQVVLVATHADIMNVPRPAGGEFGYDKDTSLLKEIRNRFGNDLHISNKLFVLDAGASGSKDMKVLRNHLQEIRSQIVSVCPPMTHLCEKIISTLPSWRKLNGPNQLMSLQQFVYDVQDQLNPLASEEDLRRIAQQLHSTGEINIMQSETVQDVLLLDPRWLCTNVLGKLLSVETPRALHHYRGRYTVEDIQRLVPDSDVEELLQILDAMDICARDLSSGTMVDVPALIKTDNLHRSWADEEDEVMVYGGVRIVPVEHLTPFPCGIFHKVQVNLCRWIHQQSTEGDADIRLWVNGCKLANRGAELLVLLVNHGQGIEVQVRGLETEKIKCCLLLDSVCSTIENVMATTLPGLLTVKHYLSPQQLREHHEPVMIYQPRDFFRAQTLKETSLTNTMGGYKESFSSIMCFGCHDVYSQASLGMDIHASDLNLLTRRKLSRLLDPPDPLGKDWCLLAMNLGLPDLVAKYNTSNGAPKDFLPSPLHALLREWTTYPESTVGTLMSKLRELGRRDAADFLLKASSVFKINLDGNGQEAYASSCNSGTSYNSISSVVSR
Method: as §1, §2, §3, §4
(§5) 6. Biology raw data for IC50 determination
(§6) Paper ID Cpd ID NSC Number

LCK = target: T3, LCK (Homo sapiens, UniProt P06239); test: as above; format: biochemical; settings: for inhibition at 10 µM: single dose of 10 µM, 10 µM ATP as printed, read-out: Percent Inhibition, LCK
T3 construct: purchased Reaction Biology Corp
T3 sequence (P06239 whole entry): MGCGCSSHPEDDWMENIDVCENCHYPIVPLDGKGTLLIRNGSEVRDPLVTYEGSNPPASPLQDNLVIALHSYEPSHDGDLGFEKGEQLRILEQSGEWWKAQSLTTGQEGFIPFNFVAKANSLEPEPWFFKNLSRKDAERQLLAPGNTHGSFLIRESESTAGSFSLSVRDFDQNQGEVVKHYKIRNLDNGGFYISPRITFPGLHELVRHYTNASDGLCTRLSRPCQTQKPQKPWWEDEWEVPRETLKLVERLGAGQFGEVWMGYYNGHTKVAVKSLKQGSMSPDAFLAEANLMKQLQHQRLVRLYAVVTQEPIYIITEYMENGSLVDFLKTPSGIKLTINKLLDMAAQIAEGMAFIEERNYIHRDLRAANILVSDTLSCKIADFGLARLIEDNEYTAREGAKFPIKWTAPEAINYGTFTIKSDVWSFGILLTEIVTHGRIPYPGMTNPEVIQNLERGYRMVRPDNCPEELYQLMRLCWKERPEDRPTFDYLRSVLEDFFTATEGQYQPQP
Method: as §1, §2, §3, §4, §5, §6

LYN = target: T4, LYN (Homo sapiens, UniProt P07948); test: as above; format: biochemical; settings: for inhibition at 10 µM: single dose of 10 µM, 10 µM ATP as printed, read-out: Percent Inhibition, LYN
T4 construct: purchased Reaction Biology Corp
T4 sequence (P07948 whole entry): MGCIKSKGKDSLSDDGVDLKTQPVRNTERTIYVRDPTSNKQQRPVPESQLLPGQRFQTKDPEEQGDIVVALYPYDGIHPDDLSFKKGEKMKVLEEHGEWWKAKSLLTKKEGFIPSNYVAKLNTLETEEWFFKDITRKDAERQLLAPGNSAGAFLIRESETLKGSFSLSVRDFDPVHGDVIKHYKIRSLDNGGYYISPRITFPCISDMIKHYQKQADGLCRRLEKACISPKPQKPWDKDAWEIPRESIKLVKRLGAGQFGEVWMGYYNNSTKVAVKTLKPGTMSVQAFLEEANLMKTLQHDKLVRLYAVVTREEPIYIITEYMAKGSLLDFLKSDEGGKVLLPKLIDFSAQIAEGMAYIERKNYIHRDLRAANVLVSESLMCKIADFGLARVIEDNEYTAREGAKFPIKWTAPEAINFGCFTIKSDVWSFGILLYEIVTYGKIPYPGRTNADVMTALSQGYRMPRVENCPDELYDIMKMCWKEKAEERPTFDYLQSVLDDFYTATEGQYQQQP
Method: as §1, §2, §3, §4, §5, §6

786-0 = test: NCI growth inhibition (SRB) assay; format: cell-based; settings: Homo sapiens, 786-0, Renal Cancer, single dose 10 µM, 48 h, read-out: Percent Growth Inhibition (GI)
Method: (§7) The antitumor assay was performed according to the protocol of the Drug Evaluation Branch, NCI, Bethesda. A 48 h drug exposure protocol was adopted, and sulforhodamine B (SRB) assay was utilized to assess the cell growth and viability, as reported earlier.
(§8) The inhibition results of tumor cell growth by the newly synthesized compounds (5a–5g) are described in Table 4. The reported measurements have been performed at the NIH National Cancer Institute, USA by a standardized assay including a panel of 60 different tumor cell lines (Supplementary Data). The following cancer cell types were included in these assays: Leukemia, non-small cell lung cancer, colon cancer, CNS cancer, melanoma, ovarian cancer, renal cancer, prostate, and breast cancer. […] Additionally, the 3,4-dimethoxy substituted compound (5b) also suffered poor activity against the cancer cell lines.

A498 = test: NCI growth inhibition (SRB) assay; format: cell-based; settings: Homo sapiens, A498, Renal Cancer, single dose 10 µM, 48 h, read-out: Percent Growth Inhibition (GI)
Method: as §7, §8

CCRF-CEM = test: NCI growth inhibition (SRB) assay; format: cell-based; settings: Homo sapiens, Leukemia, single dose 10 µM, 48 h, read-out: Percent Growth Inhibition (GI)
Method: as §7, §8

COLO 205 = test: NCI growth inhibition (SRB) assay; format: cell-based; settings: Homo sapiens, COLO 205, Colon Cancer, single dose 10 µM, 48 h, read-out: Percent Growth Inhibition (GI)
Method: as §7, §8

HCT-116 = test: NCI growth inhibition (SRB) assay; format: cell-based; settings: Homo sapiens, HCT-116, Colon Cancer, single dose 10 µM, 48 h, read-out: Percent Growth Inhibition (GI)
Method: as §7, §8

HT29 = test: NCI growth inhibition (SRB) assay; format: cell-based; settings: Homo sapiens, HT-29, HT29, Colon Cancer, single dose 10 µM, 48 h, read-out: Percent Growth Inhibition (GI)
Method: as §7, §8

IGROV1 = test: NCI growth inhibition (SRB) assay; format: cell-based; settings: Homo sapiens, IGROV-1, IGROV1, Ovarian Cancer, single dose 10 µM, 48 h, read-out: Percent Growth Inhibition (GI)
Method: as §7, §8

K-562 = test: NCI growth inhibition (SRB) assay; format: cell-based; settings: Homo sapiens, K562, K-562, Leukemia, single dose 10 µM, 48 h, read-out: Percent Growth Inhibition (GI)
Method: as §7, §8

KM12 = test: NCI growth inhibition (SRB) assay; format: cell-based; settings: Homo sapiens, KM12, Colon Cancer, single dose 10 µM, 48 h, read-out: Percent Growth Inhibition (GI)
Method: as §7, §8

MCF7 = test: NCI growth inhibition (SRB) assay; format: cell-based; settings: Homo sapiens, MCF7, Breast Cancer, single dose 10 µM, 48 h, read-out: Percent Growth Inhibition (GI)
Method: as §7, §8

MOLT-4 = test: NCI growth inhibition (SRB) assay; format: cell-based; settings: Homo sapiens, MOLT-4, Leukemia, single dose 10 µM, 48 h, read-out: Percent Growth Inhibition (GI)
Method: as §7, §8

NCI-H522 = test: NCI growth inhibition (SRB) assay; format: cell-based; settings: Homo sapiens, NCI-H522, Non-Small Cell Lung Cancer, single dose 10 µM, 48 h, read-out: Percent Growth Inhibition (GI)
Method: as §7, §8

PC-3 = test: NCI growth inhibition (SRB) assay; format: cell-based; settings: Homo sapiens, PC-3, Prostate Cancer, single dose 10 µM, 48 h, read-out: Percent Growth Inhibition (GI)
Method: as §7, §8

RXF 393 = test: NCI growth inhibition (SRB) assay; format: cell-based; settings: RXF 393, Renal Cancer, single dose 10 µM; for inhibition at 10 µM: Homo sapiens, read-out: Percent Growth Inhibition (GI)
Method: as §7, §8

UACC-62 = test: NCI growth inhibition (SRB) assay; format: cell-based; settings: Homo sapiens, UACC-62, Melanoma, single dose 10 µM, 48 h, read-out: Percent Growth Inhibition (GI)
Method: as §7, §8

[1] = single dose of 10 µM, 10 µM ATP as printed
[2] = 10-dose, 3-fold serial dilution starting at 100 μM

SMILES | inhibition at 10 µM (FMS; [1]) [%] | inhibition at 10 µM (DAPK1) [%] | inhibition at 10 µM (LCK) [%] | inhibition at 10 µM (LYN) [%] | inhibition at 10 µM (786-0) [%] | inhibition at 10 µM (A498) [%] | inhibition at 10 µM (CCRF-CEM) [%] | inhibition at 10 µM (COLO 205) [%] | inhibition at 10 µM (HCT-116) [%] | inhibition at 10 µM (HT29) [%] | inhibition at 10 µM (IGROV1) [%] | inhibition at 10 µM (K-562) [%] | inhibition at 10 µM (KM12) [%] | inhibition at 10 µM (MCF7) [%] | inhibition at 10 µM (MOLT-4) [%] | inhibition at 10 µM (NCI-H522) [%] | inhibition at 10 µM (PC-3) [%] | inhibition at 10 µM (RXF 393; 48 h) [%] | inhibition at 10 µM (UACC-62) [%] | IC50 (FMS) [nM] | also measured
COc1ccc(Oc2nc(Nc3ccc(N4CCOCC4)cc3)ncc2NC(=O)c2cc(OC)c(OC)c(OC)c2)cc1 [5c, 3,4,5-Trimethoxy-N-(4-(4-methoxyphenoxy)-2-((4-morpholinophenyl)amino)pyrimidin-5-yl)benzamide] | 69.9 ± 0.4 | 50 ± 0.1 | 19.4 ± 0.9 | -1.6 ± 0.3 | 44.2 | 38.3 | 30.5 | 21.6 | 23.9 | 47.4 | 11.9 | 20.4 | 3.99 | 7.94 | 31.6 | 2.25 | 11.6 | 50.6 | -0.63 |  | 
COc1ccc(Oc2nc(Nc3ccc(N4CCOCC4)cc3)ncc2NC(=O)c2cccc(SC)c2)cc1 [5g, N-(4-(4-Methoxyphenoxy)-2-((4-morpholinophenyl)amino)pyrimidin-5-yl)-3-(methylthio)benzamide] |  | 54.6 ± 0.8 | 96.9 ± 0.3 | 96.4 ± 0.1 | 25 | 18.9 | 13 | 4.7 | 23.7 | 24.3 | 33.9 | 29.1 | 20.2 | 21.5 | 43.1 | 26.4 | 24.9 |  | 14.7 | 110 ± 8 | fold more potent than imatinib over FMS (FMS): ~ 9 fold and 9 fold; inhibition at 10 µM (FMS): 90.6 ± 0.8%; IC50 (LCK; [2]): 87.7 ± 8.3 nM; fold more potent than imatinib over LCK (LCK; from IC50 values): ~2 fold; IC50 (LYN; [2]): 169 ± 31 nM; inhibition at 10 µM (RXF 393; RXF 393, 48 h): 70%; Percent Growth Inhibition (GI) (RXF 393; 48 h): 70.1%
CCOc1cc(OCC)cc(C(=O)Nc2cnc(Nc3ccc(N4CCOCC4)cc3)nc2Oc2ccc(OC)cc2)c1 [5d, 3,5-Diethoxy-N-(4-(4-methoxyphenoxy)-2-((4-morpholinophenyl)amino)pyrimidin-5-yl)benzamide] | 95.1 ± 0.3 | 51.6 ± 0.5 | 38.3 ± 4.2 | 31.5 ± 5.8 | 7.41 | 17.9 | 26.1 | -2.11 | 6.73 | 9.54 | 0.72 | 30.7 | 14 | 14.4 | 38.2 | 29.8 | 27.3 | 27.5 | 12 | 213 ± 1 | fold more potent than imatinib over FMS (FMS): ~5 fold
